Laboratory results from US20100267825A1, “TREATMENT OF SKIN DAMAGE” (Eukarion, Inc., priority 2009, published 2010).

Key:
[1] = In vitro catalase activity (colorimetric peroxidase/ABTS-coupled assay); assay type: biochemical; conditions: relative to C7 (EUK-8) set at 100%, 10 μM compound, 100 μM hydrogen peroxide
Procedure: The catalase activity of SOD/Catalase mimetics used in the process was determined as previously described by Doctrow et al., 2002, J. Med. Chem. 45, 4549-4558. Briefly, catalase activity was measured by incubating the sample compound with hydrogen peroxide and determining the amount of hydrogen peroxide remaining after a period of time using a colorimetric peroxidase-coupled assay method. 10 μM sample compound and 100 μM hydrogen peroxide in 40 mM sodium phosphate pH 7.4 were incubated together at ambient temperature in a multi-well plate. After the desired reaction period had elapsed, 20 μl of peroxidase/ABTS reagent was added (peroxidase/ABTS reagent contained […] of 50 mM Na phosphate, pH 7.4, 1 mg horseradish peroxidase (1310 U/mg) and 1.6 g ABTS). After five minutes, absorbance at 750 nm was determined.
The amount of hydrogen peroxide remaining was calculated based on a standard curve. To compare rates of catalase reaction, the amount of hydrogen peroxide consumed at 20 minutes was determined.
(rate obtained for SOD/Catalase mimetic)/(rate obtained for C7 (EUK-8))×100%

[2] = system: radiation-induced apoptosis; test: Protection against radiation-induced apoptosis / anti-apoptotic activity; assay type: cell-based
Cytotoxicity = assay type: cell-based
[3] = salen-metal complexes, pH 7.4, hydrogen peroxide consumed at 20 minutes
[4] = orally bioavailable metalloporphyrin derivatives, pH 7.4, 20 minutes

SMILES	Relative Catalase Rate [1, 3]	also measured
[Cl-].[Mn+3].[O-]c1ccccc1C=NCCN=Cc1ccccc1[O-] [C7 (EUK-8)]	100%	–
CC(=O)[O-].[Mn+3].[O-]c1ccccc1C=NCCN=Cc1ccccc1[O-] [C31]	92%	–
CC(=O)[O-].COc1cccc(C=NCCN=Cc2cccc(OC)c2[O-])c1[O-].[Mn+3] [C32]	188%	–
CC(=O)[O-].COc1ccc(C=NCCN=Cc2ccc(OC)cc2[O-])c([O-])c1.[Mn+3] [C33]	38%	–
COc1ccc(C=NCCN=Cc2ccc(OC)cc2[O-])c([O-])c1.[Cl-].[Mn+3] [C34]	46%	–
CC(=O)[O-].COc1cc([O-])c(C=NCCN=Cc2c([O-])cc(OC)cc2OC)c(OC)c1.[Mn+3] [C35]	25%	–
CC(=O)[O-].[Mn+3].[O-]c1c(F)cccc1C=NCCN=Cc1cccc(F)c1[O-] [C36]	128%	–
[Cl-].[Mn+3].[O-]c1c(F)cccc1C=NCCN=Cc1cccc(F)c1[O-] [C37]	117%	–
COc1cccc(C=NCCN=Cc2cccc(OC)c2[O-])c1[O-].[Cl-].[Mn+3] [C40 (EUK-134)]	155%	–
CC(=O)[O-].COc1cc(Br)c([O-])c(C=Nc2ccccc2N=Cc2cc(OC)cc(Br)c2[O-])c1.[Mn+3] [C76]	427%	–
COc1cccc(C=Nc2ccccc2N=Cc2cccc(OC)c2[O-])c1[O-].[Cl-].[Mn+3] [C81]	493%	–
CC(=O)[O-].[Mn+3].[O-]c1c2cccc1OCCOCCOCCOc1cccc(c1[O-])C=Nc1ccccc1N=C2 [C82]	345%	–
CC(=O)[O-].[Mn+3].[O-]c1ccccc1CNCCNCc1ccccc1[O-] [C83]	42%	–
[Cl-].[Mn+3].[O-]c1ccccc1CNCCNCc1ccccc1[O-] [C84]	31%	–
CC(=NCCN=C(C)c1ccccc1[O-])c1ccccc1[O-].CC(=O)[O-].[Mn+3] [C85]	31%	–
C1=Cc2nc1cc1ccc([n-]1)c(C1CC1)c1nc(cc3ccc([n-]3)c2C2CC2)C=C1.CC(=O)[O-].[Mn+3] [EUK-418, {[{(Porphine-5,15-diyl)bis[cyclopropyl-diyl]}] (2-)-N^21, N^22, N^23, N^24} manganese(III) acetate]	–	protective effect against radiation-induced apoptosis (in words) [2]: protective effect against radiation-induced apoptosis; Relative Catalase Rate [1, 4]: 70%
C1=Cc2nc1cc1ccc([n-]1)c(Cc1ccccc1)c1nc(cc3ccc([n-]3)c2Cc2ccccc2)C=C1.CC(=O)[O-].[Mn+3] [EUK-423, {[{(Porphine-5,15-diyl)bis[benzyl-diyl]}] (2-)-N^21, N^22, N^23, N^24} manganese(III) acetate]	–	protective effect against radiation-induced apoptosis (in words) [2]: protective effect against radiation-induced apoptosis; Relative Catalase Rate [1, 4]: 56%
CC(=O)[O-].CCc1c2nc(c(CC)c3ccc([n-]3)c(CC)c3nc(c(CC)c4ccc1[n-]4)C=C3)C=C2.[Mn+3] [EUK-425, (5,10,15,20-Tetraethylporphyrinato) manganese (III) acetate]	–	Relative Catalase Rate [1, 4]: 84%
CC(=O)[O-].COc1ccc(-c2c3nc(cc4ccc([n-]4)c(-c4ccc(OC)cc4)c4nc(cc5ccc2[n-]5)C=C4)C=C3)cc1.[Mn+3] [EUK-450, {[{(Porphine-5,15-diyl)bis[benzene-1,4 diyl (4-methyl-oxy)]}](2-)-N^21, N^22, N^23, N^24} manganese(III) acetate]	–	protective effect against radiation-induced apoptosis (in words) [2]: protective effect against radiation-induced apoptosis; Relative Catalase Rate [1, 4]: 84%
C1=Cc2nc1cc1ccc([n-]1)c(C1CCOCC1)c1nc(cc3ccc([n-]3)c2C2CCOCC2)C=C1.[Cl-].[Mn+3] [EUK-451, {[{(Porphine-5,15-diyl)bis[4-Tetrahydropyrano-diyl]}](2-)-N^21, N^22, N^23, N^24} manganese(III) chloride]	–	anti-apoptotic activity (in words) [2]: high; protective effect against radiation-induced apoptosis (in words) [2]: protective effect against radiation-induced apoptosis; cytotoxicity (in words) (Cytotoxicity): low; Relative Catalase Rate [1, 4]: 140%
C1=Cc2nc1cc1ccc([n-]1)c(C1CCCCC1)c1nc(cc3ccc([n-]3)c2C2CCCCC2)C=C1.[Cl-].[Mn+3] [EUK-452, {[{(Porphine-5,15-diyl)bis[cyclohexyl-diyl]}] (2-)-N^21, N^22, N^23, N^24} manganese(III) chloride]	–	protective effect against radiation-induced apoptosis (in words) [2]: protective effect against radiation-induced apoptosis; Relative Catalase Rate [1, 4]: 105%
